Data from patent US8076487B2, “Pyridone derivative and herbicide” (Kumiai Chemical Industry Co., Ltd., priority 2006, dated 2011).

Tests used:
Assay type in all cases: in vivo
[1] = tested on: barnyardgrass (Echinochloa crus-galli (L.) P. Beauv. var. crus-galli); assay: Test Example 2: herbicidal effect by soil application to upland field; settings: soil surface spray, upland field soil, 1,000 g active ingredient per hectare, 21st day after application
How it was run: (§1)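 After sowing and covering, the soil received an even aqueous spray of wettable powder at a rate of 1,000 g active ingredient/ha (1,000 L/ha). Ratings of herbicidal effect followed a standard scale 21 days post-treatment, with plants held in a greenhouse.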

[2] = tested on: green foxtail (Setaria viridis (L.) P. Beauv.); assay: as above; settings: soil surface spray, upland field soil, 1,000 g active ingredient per hectare, 21st day after application
How it was run: as §1

[3] = tested on: velvetleaf (Abutilon theophrasti medicus); assay: as above; settings: soil surface spray, upland field soil, 1,000 g active ingredient per hectare, 21st day after application
How it was run: as §1

[4] = tested on: slender amaranth (Amaranthus viridis L.); assay: as above; settings: soil surface spray, upland field soil, 1,000 g active ingredient per hectare, 21st day after application
How it was run: as §1

[5] = tested on: Japanese bulrush (Scirpus juncoides Roxb.); assay: Test Example 1: herbicidal effect by soil application to paddy field; settings: paddy field soil application; active ingredient 1,000 g per 1 hectare; wettable powder added dropwise to water surface the day after sowing; examined on the 21st day after application
How it was run: (§2)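 Plants were sown in flooded (3 cm) paddy soil and evaluated for herbicidal effect 21 days after soil application in a greenhouse.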

[6] = tested on: heartshape false pickerelweed (Monochoria vaginalis (Burm.f.) C.Presl); assay: as above; settings: paddy field soil application; active ingredient 1,000 g per 1 hectare; wettable powder added dropwise to water surface the day after sowing; examined on the 21st day after application
How it was run: as §2

[7] = tested on: early watergrass (Echinochloa oryzicola Vasing); assay: as above; settings: paddy field soil application; active ingredient 1,000 g per 1 hectare; wettable powder added dropwise to water surface the day after sowing; examined on the 21st day after application
How it was run: as §2

[8] = tested on: barnyardgrass (Echinochloa crus-galli (L.) P. Beauv. var. crus-galli); assay: Test Example 3: herbicidal effect by application to upland field (foliage treatment); settings: 14th day after application; for herbicidal effect, Barnyardgrass: foliage treatment, 1,000 g active ingredient per 1 hectare, greenhouse
How it was run: (§3)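 Upland foliage test in greenhouse pots of field soil: seedlings sprayed at two weeks post-sowing with 1,000 g/ha active ingredient (wettable powder, 1,000 L water/ha). Scored 14 d after application.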

[9] = tested on: green foxtail (Setaria viridis (L.) P. Beauv.); assay: as above; settings: 14th day after application; for herbicidal effect, Green Foxtail: foliage treatment, 1,000 g active ingredient per 1 hectare, greenhouse
How it was run: as §3

[10] = tested on: velvetleaf (Abutilon theophrasti medicus); assay: as above; settings: 14th day after application; for herbicidal effect, Velvetleaf: foliage treatment, 1,000 g active ingredient per 1 hectare, greenhouse
How it was run: as §3

[11] = tested on: slender amaranth (Amaranthus viridis L.); assay: as above; settings: 14th day after application; for herbicidal effect, Slender Amaranth: foliage treatment, 1,000 g active ingredient per 1 hectare, greenhouse
How it was run: as §3

[12] = foliage treatment, plants grown two weeks, 1,000 g active ingredient per hectare

Compound	herbicidal effect (index), Barnyardgrass [1]	herbicidal effect (index), Green Foxtail [2]	herbicidal effect (index), Velvetleaf [3]	herbicidal effect (index), Slender Amaranth [4]	herbicidal effect, Scirpus juncoides Roxb. [5]	herbicidal effect, Monochoria vaginalis (Burm. f.) C. Presl [6]	herbicidal effect, Echinochloa oryzicola Vasing [7]	herbicidal effect, Barnyardgrass [8]	herbicidal effect, Green Foxtail [9]	herbicidal effect, Velvetleaf [10]	herbicidal effect, Slender Amaranth [11]	herbicidal effect (index), Barnyardgrass [8, 12]	herbicidal effect (index), Green Foxtail [9, 12]	herbicidal effect (index), Velvetleaf [10, 12]	herbicidal effect (index), Slender Amaranth [11, 12]
CS(=O)(=O)CCCn1c(C(F)(F)F)ccc(C(=O)C2=C(O)C3CCC(C3)C2=O)c1=O (stereo not drawn) [III-33]	4 (70 to less than 90% of herbicidal effect and crop phytotoxicity)	5 (90% or more of herbicidal effect and crop phytotoxicity)	5 (90% or more of herbicidal effect and crop phytotoxicity)	5 (90% or more of herbicidal effect and crop phytotoxicity)	5 (90% or more of herbicidal effect and crop phytotoxicity)	5 (90% or more of herbicidal effect and crop phytotoxicity)	5 (90% or more of herbicidal effect and crop phytotoxicity)	5 (90% or more of herbicidal effect and crop phytotoxicity)	5 (90% or more of herbicidal effect and crop phytotoxicity)	5 (90% or more of herbicidal effect and crop phytotoxicity)	5 (90% or more of herbicidal effect and crop phytotoxicity)				
C[S+]([O-])CCCn1c(C(F)(F)F)ccc(C(=O)C2=C(O)C3CCC(C3)C2=O)c1=O (stereo not drawn) [III-32]	5 (90% or more of herbicidal effect and crop phytotoxicity)	5 (90% or more of herbicidal effect and crop phytotoxicity)	5 (90% or more of herbicidal effect and crop phytotoxicity)	5 (90% or more of herbicidal effect and crop phytotoxicity)	5 (90% or more of herbicidal effect and crop phytotoxicity)	5 (90% or more of herbicidal effect and crop phytotoxicity)	5 (90% or more of herbicidal effect and crop phytotoxicity)	5 (90% or more of herbicidal effect and crop phytotoxicity)	5 (90% or more of herbicidal effect and crop phytotoxicity)	5 (90% or more of herbicidal effect and crop phytotoxicity)	5 (90% or more of herbicidal effect and crop phytotoxicity)				
CCSCn1c(C(F)(F)F)ccc(C(=O)C2=C(O)CCCC2=O)c1=O [I-48]	5 (90% or more of herbicidal effect and crop phytotoxicity)	4 (70 to less than 90% of herbicidal effect and crop phytotoxicity)	5 (90% or more of herbicidal effect and crop phytotoxicity)	5 (90% or more of herbicidal effect and crop phytotoxicity)	5 (90% or more of herbicidal effect and crop phytotoxicity)	5 (90% or more of herbicidal effect and crop phytotoxicity)	5 (90% or more of herbicidal effect and crop phytotoxicity)					5 (90% or more of herbicidal effect and crop phytotoxicity)	5 (90% or more of herbicidal effect and crop phytotoxicity)	5 (90% or more of herbicidal effect and crop phytotoxicity)	5 (90% or more of herbicidal effect and crop phytotoxicity)
